This note sets out measurements from patent US10285983B2, “3-(1H-pyrrolo[2,3-B]pyridin-2-yl)-1H-pyrazolo[3,4-B] pyridines and therapeutic uses thereof” (Samumed, LLC, priority 2015, dated 2019).

Holding throughout (format): cell-based
The subject of test [1] is primary human fibroblasts derived from IPF patients (LL29 cells). Kind of test: Inhibition of fibrotic process, αSMA staining in TGF-β1 treated LL29 fibroblasts. Particulars: Fibroblast, 96 h, TGF-β1 20 ng/mL, 4 days; for EC50: % αSMA positive cells; for inhibition at 10 µM: given for EC50 >10 μM, read-out: percent inhibition at 10 μM. A digest of the protocol:
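IPF-patient LL29 lung fibroblasts in 1% FBS medium received compound (11-point, 1:2 dilution, 0.1% DMSO) plus TGF-β1 20 ng/mL, 4 days at 37 °C. Percent αSMA-positive cells among SYTOX-negative cells quantified by immunofluorescence imaging, normalized to TGF-β1/DMSO wells. EC50 by non-linear regression on triplicates; above 10 μM, % inhibition at 10 μM given.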

Test [2] has as its system IL-6 (THP-1 human monocyte cell line). Kind of test: IL-6 inhibition in LPS-stimulated THP-1 cells (HTRF). Particulars: LPS 500 ng/mL; for EC50: 22 hours, IL6 HTRF; for inhibition at 10 µM: given for EC50 >10 μM, read-out: percent inhibition at 10 μM. A digest of the protocol:
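THP-1 cells, serum-reduced to 1% FBS for 24 h, preincubated 2 h at 37° C with compound (10-point, 1:3 series, 0.1% DMSO), then stimulated with 500 ng/mL LPS for 22 h. IL-6 quantified by HTRF 665/620 nm ratio, normalized to DMSO; EC50 by four-parameter fit, else percent inhibition at 10 μM.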

For another test, the system named is SW480 colon cancer cells. Put plainly: Cell viability assay (CellTiter-Blue). Particulars: Homo sapiens, 96 h, four days; for inhibition at 10 µM: given for EC50 >10 μM, read-out: percent inhibition at 10 μM. In a few lines: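 Approximately 2×10^3 SW480 cells per well are seeded with compound (8 points, threefold steps, top 10 μM) and incubated four days at 37 °C. CellTiter-Blue is then added for about 3 h and fluorescence read. Non-linear regression gives EC50; for values beyond 10 μM, percent inhibition at that concentration is listed.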
(In general: The colour change of resazurin is a common sign of viable cells or microbes.)

A word on the EC50: it is the midpoint of the concentration-response curve. By inhibition is commonly meant the drop in the measured response relative to a control, in per cent. For the compound `c1cnc2[nH]c(-c3n[nH]c4ncc(-c5ccncc5)cc34)cc2c1` [Compound 270, 5-(Pyridin-4-yl)-3-(1H-pyrrolo[2,3-b]pyridin-2-yl)-1H-pyrazolo[3,4-b]pyridine], the EC50 in test [1] is more than 10 µM; in test [2], 4.65 µM; with SW480 colon cancer cells, more than 10 µM. For the same compound, the inhibition at 10 µM in test [1] is 55.6%; in the test with SW480 colon cancer cells, 23.9%.

For the compound `Cn1cc(-c2cnc3[nH]nc(-c4cc5cccnc5[nH]4)c3c2)cn1` [Compound 652, 5-(1-Methyl-1H-pyrazol-4-yl)-3-(1H-pyrrolo[2,3-b]pyridin-2-yl)-1H-pyrazolo[3,4-b]pyridine], the 50% effective concentration (EC50) in test [1] is 0.23 µM; in test [2], 0.772 µM; in the test on SW480 colon cancer cells it was more than 10 µM. In addition, the inhibition at 10 µM in the test on SW480 colon cancer cells was found to be 9.2%.

Take `CN(C)c1cncc(-c2cnc3[nH]nc(-c4cc5c(-c6cccs6)ccnc5[nH]4)c3c2)c1` [Compound 343, N,N-Dimethyl-5-(3-(4-(thiophen-2-yl)-1H-pyrrolo[2,3-b]pyridin-2-yl)-1H-pyrazolo[3,4-b]pyridin-5-yl)pyridin-3-amine]: the half-maximal effective concentration (EC50) in test [1] was 1.75 µM; in test [2], 0.032 µM; in the test with SW480 colon cancer cells, more than 10 µM. For the same compound, the inhibition at 10 µM in the test with SW480 colon cancer cells is 36.8%.

`Cc1ncc(-c2cnc3[nH]nc(-c4cc5c(-c6cc(F)cc(NCCN(C)C)c6)ccnc5[nH]4)c3c2)n1C` [Compound 781, N^1-(3-(2-(5-(1,2-Dimethyl-1H-imidazol-5-yl)-1H-pyrazolo[3,4-b]pyridin-3-yl)-1H-pyrrolo[2,3-b]pyridin-4-yl)-5-fluorophenyl)-N^2,N^2-dimethylethane-1,2-diamine]: the EC50 is 0.938 µM in test [1], more than 10 µM in test [2] and more than 10 µM in the test with SW480 colon cancer cells. The inhibition at 10 µM was found to be 44.5% in test [2] and 0% with SW480 colon cancer cells.

Regarding `Fc1ccc(-c2ccnc3[nH]c(-c4n[nH]c5ncc(-c6cncc(CN7CCC(F)(F)C7)c6)cc45)cc23)cc1` [Compound 54, 5-(5-((3,3-Difluoropyrrolidin-1-yl)methyl)pyridin-3-yl)-3-(4-(4-fluorophenyl)-1H-pyrrolo[2,3-b]pyridin-2-yl)-1H-pyrazolo[3,4-b]pyridine], the EC50 was 4.88 µM in test [1], more than 10 µM in test [2] and more than 10 µM in the test on SW480 colon cancer cells. Besides, the inhibition at 10 µM stood at 32.3% in test [2] and 6.9% in the test with SW480 colon cancer cells.

Take `CC(C)(C)CC(=O)Nc1cncc(-c2cnc3[nH]nc(-c4cc5c(-c6ccoc6)ccnc5[nH]4)c3c2)c1` [Compound 324, N-(5-(3-(4-(Furan-3-yl)-1H-pyrrolo[2,3-b]pyridin-2-yl)-1H-pyrazolo[3,4-b]pyridin-5-yl)pyridin-3-yl)-3,3-dimethylbutanamide]: the EC50 (in test [1]; in test [2]; in the test on SW480 colon cancer cells) was more than 10 µM each time. In addition, the inhibition at 10 µM is 0% in test [1], 28.6% in test [2] and 5.3% in the test on SW480 colon cancer cells.

Consider `Fc1ccc(-c2ccnc3[nH]c(-c4n[nH]c5ncc(-c6cncc(CN7CCCCC7)c6)cc45)cc23)cc1` [Compound 43, 3-(4-(4-Fluorophenyl)-1H-pyrrolo[2,3-b]pyridin-2-yl)-5-(5-(piperidin-1-ylmethyl)pyridin-3-yl)-1H-pyrazolo[3,4-b]pyridine], for which the EC50 (in test [1]; in test [2]; in the test on SW480 colon cancer cells) was more than 10 µM in each case. Further, the figures for the inhibition at 10 µM (in test [1]; in test [2]; with SW480 colon cancer cells) were 0%, 36.7% and 6.9%, respectively.

Consider `CC(C)CC(=O)Nc1cncc(-c2cnc3[nH]nc(-c4cc5c(-c6cccnc6)ccnc5[nH]4)c3c2)c1` [Compound 86, 3-Methyl-N-(5-(3-(4-(pyridin-3-yl)-1H-pyrrolo[2,3-b]pyridin-2-yl)-1H-pyrazolo[3,4-b]pyridin-5-yl)pyridin-3-yl)butanamide], for which the 50% effective concentration (EC50) (in test [1]; in test [2]; with SW480 colon cancer cells) was more than 10 µM in each case. Also, the figures for the inhibition at 10 µM (in test [1]; in test [2]; in the test on SW480 colon cancer cells) were 0%, 34.3% and 24.1%, respectively.

Regarding `CCCC(=O)Nc1cncc(-c2cnc3[nH]nc(-c4cc5c(-c6ccncc6)ccnc5[nH]4)c3c2)c1` [Compound 129, N-(5-(3-(4-(Pyridin-4-yl)-1H-pyrrolo[2,3-b]pyridin-2-yl)-1H-pyrazolo[3,4-b]pyridin-5-yl)pyridin-3-yl)butyramide], the EC50 in test [1] was 0.621 µM; in test [2], 0.621 µM; in the test with SW480 colon cancer cells it was more than 10 µM. In the test on SW480 colon cancer cells, the inhibition at 10 µM amounted to 3.8%.

For the compound `O=C(Nc1cncc(-c2cnc3[nH]nc(-c4cc5c(-c6cccnc6)ccnc5[nH]4)c3c2)c1)C1CC1` [Compound 104, N-(5-(3-(4-(Pyridin-3-yl)-1H-pyrrolo[2,3-b]pyridin-2-yl)-1H-pyrazolo[3,4-b]pyridin-5-yl)pyridin-3-yl)cyclopropanecarboxamide], the 50% effective concentration (EC50) (in test [1]; in test [2]; with SW480 colon cancer cells) was more than 10 µM each time. Besides, the figures for the inhibition at 10 µM (in test [1]; in test [2]; in the test with SW480 colon cancer cells) were 19.6%, 35.8% and 10.4%, respectively.

For the compound `Fc1ccc(-c2ccnc3[nH]c(-c4n[nH]c5ncc(-c6cncnc6)cc45)cc23)cc1` [Compound 55, 3-(4-(4-Fluorophenyl)-1H-pyrrolo[2,3-b]pyridin-2-yl)-5-(pyrimidin-5-yl)-1H-pyrazolo[3,4-b]pyridine], the concentration for a half-maximal effect (EC50) (in test [1]; in test [2]; in the test on SW480 colon cancer cells) was more than 10 µM in each case. For the same compound, the inhibition at 10 µM turned out to be 1.8% in test [1], 32.2% in test [2] and 3.5% in the test on SW480 colon cancer cells.

As to `CN(C)CCNc1cc(F)cc(-c2ccnc3[nH]c(-c4n[nH]c5ncc(-c6cncc(NC(=O)C(C)(C)C)c6)cc45)cc23)c1` [Compound 456, N-(5-(3-(4-(3-((2-(Dimethylamino)ethyl)amino)-5-fluorophenyl)-1H-pyrrolo [2,3-b]pyridin-2-yl)-1H-pyrazolo[3,4-b]pyridin-5-yl)pyridin-3-yl)pivalamide], the EC50 in test [1] is more than 10 µM; in test [2] it was 1.52 µM; in the test on SW480 colon cancer cells, more than 10 µM. Besides, the inhibition at 10 µM (in test [1]; with SW480 colon cancer cells) was 0% each time.

For the compound `c1csc(-c2ccnc3[nH]c(-c4n[nH]c5ncc(-c6cncc(OC7CCCCC7)c6)cc45)cc23)c1` [Compound 703, 5-(5-(Cyclohexyloxy)pyridin-3-yl)-3-(4-(thiophen-2-yl)-1H-pyrrolo[2,3-b]pyridin-2-yl)-1H-pyrazolo[3,4-b]pyridine], the values for the EC50 (in test [1]; in test [2]; with SW480 colon cancer cells) were 2.51 µM, more than 10 µM and more than 10 µM, respectively. The inhibition at 10 µM amounted to 11% in test [2] and 23.3% with SW480 colon cancer cells.

Consider `CC(C)(C)CC(=O)Nc1cncc(-c2cnc3[nH]nc(-c4cc5c(-c6ccncc6)ccnc5[nH]4)c3c2)c1` [Compound 128, 3,3-Dimethyl-N-(5-(3-(4-(pyridin-4-yl)-1H-pyrrolo[2,3-b]pyridin-2-yl)-1H-pyrazolo[3,4-b]pyridin-5-yl)pyridin-3-yl)butanamide], for which the EC50 (in test [1]; in test [2]; with SW480 colon cancer cells) was more than 10 µM each time. Besides, the inhibition at 10 µM stood at 0% in test [1], 45.8% in test [2] and 10.7% in the test on SW480 colon cancer cells.

`c1ncc(-c2cnc3[nH]nc(-c4cc5c(N6CCCCC6)ccnc5[nH]4)c3c2)cn1` [Compound 195, 3-(4-(Piperidin-1-yl)-1H-pyrrolo[2,3-b]pyridin-2-yl)-5-(pyrimidin-5-yl)-1H-pyrazolo[3,4-b]pyridine]: the EC50 in test [1] is 4.38 µM; in test [2], more than 10 µM; in the test on SW480 colon cancer cells, more than 10 µM. The inhibition at 10 µM in test [2] was found to be 49.8%; with SW480 colon cancer cells, 13.9%.

As for `CN(C)c1cncc(-c2cnc3[nH]nc(-c4cc5c(-c6ccccc6F)ccnc5[nH]4)c3c2)c1` [Compound 63, 5-(3-(4-(2-Fluorophenyl)-1H-pyrrolo[2,3-b]pyridin-2-yl)-1H-pyrazolo[3,4-b]pyridin-5-yl)-N,N-dimethylpyridin-3-amine], the EC50 (in test [1]; in test [2]; in the test on SW480 colon cancer cells) was more than 10 µM throughout. For the same compound, the figures for the inhibition at 10 µM (in test [1]; in test [2]; in the test with SW480 colon cancer cells) were 0%, 11.3% and 16.1%, respectively.

Take `Oc1cncc(-c2cnc3[nH]nc(-c4cc5c(-c6ccc(F)cc6)ccnc5[nH]4)c3c2)c1` [Compound 533, 5-(3-(4-(4-Fluorophenyl)-1H-pyrrolo[2,3-b]pyridin-2-yl)-1H-pyrazolo[3,4-b]pyridin-5-yl)pyridin-3-ol]: the EC50 in test [1] was 6.76 µM; in test [2], more than 10 µM; with SW480 colon cancer cells, more than 10 µM. Also, the figures for the inhibition at 10 µM (in test [2]; in the test on SW480 colon cancer cells) were 20.7% and 19%, respectively.
